Consider 4 substances from patent publication US9814740B2, “Methods and compositions combining immunotherapy with monocyte activation” (Duke University, priority 2010, dated 2017).

Data set [1] relates to purified mouse spleen B cells. Kind of data set: Secreted IL-10 ELISA. The format is cell-based. Particulars: 25 μg/ml, 72 h. As for the experimental part:
Cytokine ELISA. Secreted IL-10 was quantified by ELISA. Purified B cells (4×10^5) were cultured in 0.2 ml of complete medium with TLR agoninsts (25 μg/ml) in a 96-well flat-bottom tissue culture plates. Culture supernatant fluid IL-10 concentrations were quantified using IL-10 OptEIA ELISA kits (BD PharMingen) bfollowing the manufacturer's protocols. All assays were carried out using triplicate samples.
A general note: An ELISA detects its analyte on a solid surface through an enzyme-linked reagent.

The subject of another data set is FcγRII/III. Kind of data set: FcγRII/III expression by innate effector cells after TLR agonist treatment. To be noted: splenocytes 18 h after treatment. The format is in vivo, mouse. As for the experimental part:
FIG. 4 is a set of graphs showing that TLR agonists induce monocyte activation and enhance CD20 mAb-induced B cell depletion. […] Splenocytes were isolated from mice 18 h later and analyzed for FcγRII/III expression by immunofluorescence staining. For FIGS. 4A-B the results represent 2 independent experiments. […] B1b and B2 cells were distinguished based on their differential expression of CD11b. […] Representative peritoneal lymphocytes of CpG-treated MyD88^-/- or wild type mice following CD20 or control mAb (25 μg) treatment. Percentages (±SEM) represent mean B220^+ cell frequencies within the indicated gates 7 days after CD20 mAb treatment (≧3 mice per value) relative to control mAb-treated littermates (n=3). In FIG. 4C-E significant differences between sample means are indicated; *p<0.05, **p<0.01. Results represent 3-4 independent experiments. Immunofluorescence analysis. CD20 expression was visualized using biotin-conjugated mouse CD20 (MB20-11) mAb (Uchida et al., 2004b) plus phycoerythrin-Cy5 (PE-Cy5) streptavidin (eBioscience, San Diego, Calif.). Other mAbs included: B220 (RA3-6B2), CD1d (1B1), CD5 (53-7.3), CD19 (1D3), NK1.1 (PK136), and I-A/I-E (M5/114.15.2) from BD Biosciences (San Jose, Calif.). CD11b (M1/70), CD86 (GL1), F4/80 (BM8), IgM (II/41), Gr-1 (RB6-8C5), and IL-10 (JES5-16E3) mAbs were from eBioscience. TNF-α (MP6-XT22) mAb was from Biolegend (San Diego, Calif.). […]

The test system of data set [2] is bone marrow CD11b+ monocytes. Nature of the data set: TLR-induced TNF-α production by CD11b+ bone marrow cells. The class given is cell-based, mouse. Particulars: TLR agonists 25 μg/ml, 4 h, Brefeldin A. As to the method: (§1) For IL-10 detection, mouse spleen or blood mononuclear cells, BL3750 tumor cells, or human blood were resuspended (2×10^6 cells/ml) in complete medium [RPMI 1640 media (Cellgro, Herndon, Va.) containing 10% FCS (Sigma, St. Louis, Mo.). […]. 4 mM L-Glutamine (all Cellgro), and 55 μM 2-mercaptoethanol (Invitrogen, Carlsbad. CA)] with lipopolysaccharide (LPS, 10 μg/ml, Escherichia coli serotype 0111: B4, Sigma), phorbol myristate acetate (PMA, 50 ng/ml; Sigma), ionomycin (500 ng/ml; Sigma), and monensin (2 μM; eBioscience) for 5 h. B10 progenitor cells were induced to mature and acquire IL-10 competence in vitro by culturing the cells with LPS (10 μg/ml), CpG (human ODN 2006, 10 μg/ml; Invivogen, San Diego, Calif., mouse ODN 1668, 10 μg/ml; Integrated DNA Technologies, Coralville, Iowa), or poly I:C (Invivogen) for 48 h with the addition of monensin, PMA and ionomycin for the last 5 h of culture. For TNF-α detection, bone marrow cells were resuspended (2×10^6 cells/ml) in complete medium with Brefeldin A (1 μl; Biolegend) and TLR agonists (25 μg/ml) for 4 h. Before cell surface staining, Fc receptors were blocked using Fc receptor mAb (2.4G2; BD Biosciences), and dead cells were labeled using a LIVE/DEAD® Fixable Green Dead Cell Stain Kit (Invitrogen-Molecular Probes). […]

The subject of the next data set is mouse spleen B cells. Nature of the data set: B10pro cell maturation in vitro (mouse). The class given is cell-based. To be noted: purified mouse spleen B cells, 48 h. As for the experimental part:
as §1

A further data set deals with peritoneal B cells. Nature of the data set: Peritoneal B cell depletion by CD20 mAb with TLR agonists. The class given is in vivo, mouse. Particulars: MyD88^−/− versus C57BL/6 mice. The text has this:
Immunofluorescence analysis. CD20 expression was visualized using biotin-conjugated mouse CD20 (MB20-11) mAb (Uchida et al., 2004b) plus phycoerythrin-Cy5 (PE-Cy5) streptavidin (eBioscience, San Diego, Calif.). Other mAbs included: B220 (RA3-6B2), CD1d (1B1), CD5 (53-7.3), CD19 (1D3), NK1.1 (PK136), and I-A/I-E (M5/114.15.2) from BD Biosciences (San Jose, Calif.). CD11b (M1/70), CD86 (GL1), F4/80 (BM8), IgM (II/41), Gr-1 (RB6-8C5), and IL-10 (JES5-16E3) mAbs were from eBioscience. TNF-α (MP6-XT22) mAb was from Biolegend (San Diego, Calif.). For immunofluorescence analysis, single cell suspensions (10^6 cells) were stained at 4° C. using predetermined optimal concentrations of mAb for 30 minutes as described (Sato et al., 1996). CD20 immunotherapy and TLR agonist treatments. Sterile mouse anti-mouse CD20 mAb (MB20-11, IgG2c) and unreactive mouse control IgG2a mAb were as described ([…]-Colin et al., 2008). In some experiments, mice were treated with anti-NK1.1 mAb ([…]) on day -4 and day 3 for N K cell depletion. Macrophage deficiency was generated by tail vein injections of clodronate-encapsulated liposomes (Sigma-Aldrich) or control PBS-encapsulated liposomes (Van Rooijen and Sanders, 1994) 0.2 ml given on day -1 and 0.1 ml given on days 2, 5, and 9 (FIG. 3B) or 0.2 ml given on days -2, 1, and 4 (FIG. 3C). […]

Data set [3] relates to human blood mononuclear cells. Kind of data set: B10pro cell maturation in vitro (human). To be noted: 48 h, CpG = human ODN 2006. The class given is cell-based. As for the experimental part:
as §1

A further data set has as its system purified spleen B cells. Kind of data set: B cell proliferation assay (CFSE). The format is cell-based, mouse. To be noted: 25 μg/ml, 72 h. As for the experimental part: Proliferation assay. Splenic B cells were purified using CD19 mAb-coated microbeads (Miltenyi) and labeled with CFSE Vybrant™ CFDA SE fluorescent dye (5 μM; Invitrogen). Labeled B cells were then cultured in medium with LPS, CpG, or poly I:C (25 μg/ml) for 72 h and assessed by flow cytometry.

For another data set, the system named is BL3750 lymphoma cells. Nature of the data set: BL3750 lymphoma model. The format is in vivo, mouse. As to the method:
Lymphoma model. BL3750 lymphoma cells were as described (Minard-Colin et al., 2008). This lymphoma model is accepted by those skilled in the art as a standard model for human lymphoma disease. For each experiment, tumor cells were thawed and expanded for 24-48 hours in complete medium (RPMI 1640 media containing 20% fetal bovine serum, 100 U/ml penicillin, 100 μg/ml streptomycin, 2 mM L-glutamine, and 55 μM 2-mercaptoethanol). BL3750 cells in 250 μl PBS were injected subcutaneously into the dorsal skin of recipient mice on day 0. This mouse model of lymphoma is a standard animal model for human lymphoma used and accepted by those skilled in the art. Mice were then given purified mAb in 250 μl of PBS intravenously, and starting on day 7 were monitored daily for tumor development and progression, and survival. Tumor measurements were as described (Minard-Colin et al., 2008).
CD20 immunotherapy and TLR agonist treatments. […] In some experiments, mice were treated with anti-NK1.1 mAb (100 g) on day −4 and day 3 for N K cell depletion. Macrophage deficiency was generated by tail vein injections of clodronate-encapsulated liposomes (Sigma-Aldrich) or control PBS-encapsulated liposomes (Van Rooijen and Sanders, 1994) 0.2 ml given on day −1 and 0.1 ml given on days 2, 5, and 9 (FIG. 3B) or 0.2 ml given on days −2, 1, and 4 (FIG. 3C).

The conditions of data set [4]: compared with parent poly I:poly C; cited from earlier work.
The next data set deals with macrophages. Nature of the data set: In vitro assay of antibody-dependent phagocytosis. The format is cell-based, mouse. As to the method: In vitro assay of antibody-dependent phagocytosis. Spleen B cells were purified by MACS B cell isolation (Miltenyi Biotech), labeled with CFSE Vybrant™ CFDA SE fluorescent dye (5 μM; Invitrogen) and cultured over night in complete medium. CFSE-labeled B cells were incubated with CD20 mAb (MB20-11) on ice for 1 h, and washed with complete medium to remove unbound mAb. Macrophages were isolated from the peritoneal cavity of thioglycolate-treated mice by lavage. Peritineal macrophages were further purified by adherence to plastic before culture with or without poly I:C (25 μg/ml) in complete medium at 37° C. in a 5% CO2 atmosphere for 18 h. Macrophages and B cells were mixed at a 1:1 ratio and cultured for 2.5 h. The cell mixture was then stained with PE-conjugated CD11b mAb with the percentage of CFSE^+CD11b^+ (double-positive cells) analyzed by flow cytometry.

The mark [5] stands for this setting: 10^5 BL3750 cells day 0, control mAb plus TLR agonist on days 1, 7, 14 and 21.

Turning to “CpG: CpG ODN 1668 (5′tccATGACGTTCCTGAtgcT3′, bases in lower case are phosphorothioate); TLR9 agonist (DNA TCCATGACGTTCCTGATGCT; DNA, linkages s3 o13 s3 (s phosphorothioate, o phosphodiester), methylation of C not given here)”, the IL-10 secretion result in [1] was “induced IL-10 secretion”. The “FcγRII/III expression by innate effector cells” value in the data set with FcγRII/III is “higher levels of FcγRII/III expression”. In data set [2], the “TNF-α production by monocytes” value is “induced significant TNF-α production”. The “B10pro cell maturation into IL-10-competent B10 cells” value (in the data set with mouse spleen B cells; in data set [3]) was “induced significant numbers of B10pro cells to mature” throughout. For the same substance, in the data set with peritoneal B cells, the “ability to enhance peritoneal B cell depletion by CD20 mAb” value was “significantly reduced by MyD88-deficiency”. The B cell proliferation result with purified spleen B cells is “proliferated significantly”.

For the substance “polyadenylic-polyuridylic acid [Poly (A:U)]”, in the data set on BL3750 lymphoma cells (compared with Poly (I:C)), the “reducing tumor growth in the mouse model” value is “not as effective as Poly (I:C)”.

poly I:poly C12U [Ampligen]: the toxicity entry in data set [4] was “lower toxicity”.

For “polyinosinic-polycytidylic acid [poly I:C]”, the IL-10 secretion result in [1] is on record as “without effect”. In addition, the “FcγRII/III expression by innate effector cells” value in the data set on FcγRII/III was “higher levels of FcγRII/III expression”. Besides, the “TNF-α production by monocytes” value in [2] was “induced significant TNF-α production”. Further, in the data set with mouse spleen B cells, the “B10pro cell maturation into IL-10-competent B10 cells” value is on record as “without effect”. Besides, in the data set on BL3750 lymphoma cells (setting [5]), the “effect on mouse survival” value was “significant affect on mouse survival” and the median survival is on record as 33 days. Moreover, in [3], the “B10pro cell maturation into IL-10-competent B10 cells” value is “without effect”. Besides, in the data set with macrophages (macrophages from TLR3^−/− or TRIF^−/− mice), the “phagocytic capacity of macrophages” value was “unable to augment”. Further, in the data set with macrophages (wild type macrophages, poly I:C 25 μg/ml 18 h, 1:1, 2.5 h), the “macrophage phagocytosis of CD20 mAb-coated B cells” value is on record as “significantly enhanced”. In addition, the B cell proliferation result in the data set on purified spleen B cells is recorded as “did not proliferate”.
